Test: Solubility of compound I in water
Assay type: physicochemical
Description: The bitter taste of compound I can also be overcome by using flavouring agents (1.5) and/or sweetening agents (1.6).

COc1ccccc1Oc1c(NS(=O)(=O)c2ccc(C(C)(C)C)cc2)nc(-c2ncccn2)nc1OCCO [compound I, 4-tert-butyl-N-[6-(2-hydroxy-ethoxy)-5-(2-methoxy-phenoxy)-2-(pyrimidin-2-yl)-pyrimidin-4-yl]-benzenesulfonamide]
Effect of an acidifying agent on solubility of compound I (presence of an acidifying agent (1.4), tablet dispersed with water): decreases the solubility
Solubility in water (water): practically insoluble
